In publication PMC9005681, “Use of AD Informer Set compounds to explore validity of novel targets in Alzheimer's disease pathology” (Alzheimer's & Dementia : Translational Research & Clinical …, 2022):

Legend:
Experiment in all cases: PDSP GPCR panel primary binding assays at 10 μM
[1] = target: T1, cloned human or rodent CNS receptors, channels, and transporters (PDSP panel) (Homo sapiens, UniProt Q01959); settings: Receptor DAT, primary assay, 10 μM; for Mean %: mean of Inhibition 1-4
T1 construct: expressed in transfected cells
Summary of the method: (§1)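 Competition binding with radiolabeled standard ligands, single 10 μM concentration, four replicates. Targets showing over 50% displacement were followed up with 11-point titrations in triplicate.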

[2] = target: T2, cloned human or rodent CNS receptors, channels, and transporters (PDSP panel) (Homo sapiens, UniProt P28335); settings: Receptor 5-HT2C, primary assay, 10 μM; for Mean %: mean of Inhibition 1-4
T2 construct: expressed in transfected cells
T2 sequence (P28335 33-458): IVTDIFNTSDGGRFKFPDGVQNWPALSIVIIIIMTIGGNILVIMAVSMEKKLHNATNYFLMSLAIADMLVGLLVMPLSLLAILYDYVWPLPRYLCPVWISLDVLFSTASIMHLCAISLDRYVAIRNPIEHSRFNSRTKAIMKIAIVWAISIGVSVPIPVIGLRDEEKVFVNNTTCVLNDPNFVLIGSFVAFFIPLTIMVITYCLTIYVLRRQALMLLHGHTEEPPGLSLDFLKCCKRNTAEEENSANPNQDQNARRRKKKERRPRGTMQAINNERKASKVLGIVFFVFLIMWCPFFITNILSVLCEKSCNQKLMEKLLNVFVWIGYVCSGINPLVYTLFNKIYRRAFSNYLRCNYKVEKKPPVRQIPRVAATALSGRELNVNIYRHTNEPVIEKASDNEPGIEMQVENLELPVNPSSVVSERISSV
Summary of the method: as §1

[3] = target: T3, cloned human or rodent CNS receptors, channels, and transporters (PDSP panel) (Homo sapiens, UniProt P11229); settings: Receptor M1, primary assay, 10 μM; for Mean %: mean of Inhibition 1-4
T3 construct: expressed in transfected cells
T3 sequence (P11229 1-460): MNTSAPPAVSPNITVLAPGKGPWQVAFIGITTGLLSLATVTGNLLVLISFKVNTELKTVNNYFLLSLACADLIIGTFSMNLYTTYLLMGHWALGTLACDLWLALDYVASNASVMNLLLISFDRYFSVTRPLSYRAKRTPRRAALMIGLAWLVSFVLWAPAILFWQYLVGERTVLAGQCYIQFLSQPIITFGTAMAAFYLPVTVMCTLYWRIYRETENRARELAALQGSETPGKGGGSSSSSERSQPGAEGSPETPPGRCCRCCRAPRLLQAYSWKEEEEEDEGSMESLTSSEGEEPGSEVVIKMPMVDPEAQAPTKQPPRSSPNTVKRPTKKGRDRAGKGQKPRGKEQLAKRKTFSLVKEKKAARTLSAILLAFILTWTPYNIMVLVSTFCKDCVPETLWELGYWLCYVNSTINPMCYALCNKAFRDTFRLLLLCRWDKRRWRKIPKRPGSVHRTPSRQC
Summary of the method: as §1

[4] = target: T4, cloned human or rodent CNS receptors, channels, and transporters (PDSP panel) (Homo sapiens, UniProt P14416); settings: Receptor D2, primary assay, 10 μM; for Mean %: mean of Inhibition 1-4
T4 construct: expressed in transfected cells
Summary of the method: as §1

[5] = target: T5, cloned human or rodent CNS receptors, channels, and transporters (PDSP panel) (Homo sapiens, UniProt P35462); settings: Receptor D3, primary assay, 10 μM; for Mean %: mean of Inhibition 1-4
T5 construct: expressed in transfected cells
Summary of the method: as §1

[6] = system: cloned human or rodent CNS receptors, channels, and transporters (PDSP panel); settings: 10 μM; for Affinity for receptors in primary assays: 46-47 primary binding assays; for Inhibition 1 / Inhibition 2 / Inhibition 3 / Inhibition 4 / Mean %: primary assay; for Mean %: mean of Inhibition 1-4
Summary of the method: as §1

T1 sequence (Q01959 whole entry): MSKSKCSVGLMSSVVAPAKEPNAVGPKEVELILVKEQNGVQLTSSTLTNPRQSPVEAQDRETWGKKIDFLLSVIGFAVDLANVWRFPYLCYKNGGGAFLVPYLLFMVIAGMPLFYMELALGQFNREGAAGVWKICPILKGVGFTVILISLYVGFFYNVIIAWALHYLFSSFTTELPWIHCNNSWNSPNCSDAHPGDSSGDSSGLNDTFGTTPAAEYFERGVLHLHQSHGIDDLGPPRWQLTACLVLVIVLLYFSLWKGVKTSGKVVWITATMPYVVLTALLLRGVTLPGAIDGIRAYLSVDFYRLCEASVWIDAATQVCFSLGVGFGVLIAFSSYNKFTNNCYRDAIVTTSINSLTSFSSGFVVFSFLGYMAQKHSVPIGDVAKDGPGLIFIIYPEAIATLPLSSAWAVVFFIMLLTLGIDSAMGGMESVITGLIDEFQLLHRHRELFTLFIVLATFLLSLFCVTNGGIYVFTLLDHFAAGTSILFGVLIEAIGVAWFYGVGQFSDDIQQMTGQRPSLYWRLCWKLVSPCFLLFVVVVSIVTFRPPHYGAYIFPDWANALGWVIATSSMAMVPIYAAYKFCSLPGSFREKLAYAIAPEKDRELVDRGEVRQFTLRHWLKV
T5 sequence (P35462 whole entry): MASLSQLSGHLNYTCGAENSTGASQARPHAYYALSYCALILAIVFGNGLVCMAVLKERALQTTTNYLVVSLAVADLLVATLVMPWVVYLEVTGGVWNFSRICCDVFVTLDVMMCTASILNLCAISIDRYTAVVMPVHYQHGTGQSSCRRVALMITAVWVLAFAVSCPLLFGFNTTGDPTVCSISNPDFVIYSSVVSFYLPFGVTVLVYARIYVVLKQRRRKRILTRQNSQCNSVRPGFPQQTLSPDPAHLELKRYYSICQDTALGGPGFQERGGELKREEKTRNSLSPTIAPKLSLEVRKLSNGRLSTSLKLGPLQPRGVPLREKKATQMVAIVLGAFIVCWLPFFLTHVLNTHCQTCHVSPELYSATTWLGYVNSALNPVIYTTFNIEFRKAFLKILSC
T4 sequence (P14416 whole entry): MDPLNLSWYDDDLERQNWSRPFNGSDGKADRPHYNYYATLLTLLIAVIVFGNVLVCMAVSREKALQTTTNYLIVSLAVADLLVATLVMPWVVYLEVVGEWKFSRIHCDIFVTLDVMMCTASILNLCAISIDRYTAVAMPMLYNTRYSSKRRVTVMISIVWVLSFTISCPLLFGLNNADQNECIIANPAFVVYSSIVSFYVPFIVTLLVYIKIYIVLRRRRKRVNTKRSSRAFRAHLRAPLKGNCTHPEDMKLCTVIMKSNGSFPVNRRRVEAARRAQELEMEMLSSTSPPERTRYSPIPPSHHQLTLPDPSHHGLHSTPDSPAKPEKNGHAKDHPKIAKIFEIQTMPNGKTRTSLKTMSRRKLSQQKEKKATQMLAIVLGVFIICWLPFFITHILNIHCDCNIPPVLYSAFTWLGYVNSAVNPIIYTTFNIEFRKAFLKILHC

CCCCNc1ncc2c(-c3ccc(CN4CCN(C)CC4)cc3)cn([C@H]3CC[C@H](O)CC3)c2n1 [UNC2025C, UNC2025]
Inhibition 1 [1]: 56.29%
Inhibition 2 [1]: 47.54%
Inhibition 3 [1]: 58.45%
Inhibition 4 [1]: 64.82%
Mean % [1]: 56.78%
Inhibition 1 [2]: 29.45%
Inhibition 2 [2]: 46.13%
Inhibition 3 [2]: 31.41%
Inhibition 4 [2]: 26.99%
Mean % [2]: 33.5%
Inhibition 1 [3]: 58.8%
Inhibition 2 [3]: 42.24%
Inhibition 3 [3]: 30.2%
Inhibition 4 [3]: 36.41%
Mean % [3]: 41.91%
Inhibition 1 [4]: 11.9%
Inhibition 2 [4]: -4.63%
Inhibition 3 [4]: 2.76%
Inhibition 4 [4]: -1.81%
Mean % [4]: 2.06%
Inhibition 1 [5]: 18.68%
Inhibition 2 [5]: 25.04%
Inhibition 3 [5]: 10.39%
Inhibition 4 [5]: 7.11%
Mean % [5]: 15.31%
Affinity for receptors in primary assays [6]: possessed affinity for the most receptors in primary assays
Inhibition 1 ([6]; Receptor Alpha1A): 55.27%
Inhibition 2 ([6]; Receptor Alpha1A): 34.14%
Inhibition 3 ([6]; Receptor Alpha1A): 47.98%
Inhibition 4 ([6]; Receptor Alpha1A): 43.68%
Mean % ([6]; Receptor Alpha1A): 45.27%
Inhibition 1 ([6]; Receptor Alpha2A): 41.44%
Inhibition 2 ([6]; Receptor Alpha2A): 35.02%
Inhibition 3 ([6]; Receptor Alpha2A): 40.8%
Inhibition 4 ([6]; Receptor Alpha2A): 38.73%
Mean % ([6]; Receptor Alpha2A): 39%
Inhibition 1 ([6]; Receptor Alpha2C): 51.96%
Inhibition 2 ([6]; Receptor Alpha2C): 38.52%
Inhibition 3 ([6]; Receptor Alpha2C): 26.65%
Inhibition 4 ([6]; Receptor Alpha2C): 27.54%
Mean % ([6]; Receptor Alpha2C): 36.17%
Inhibition 1 ([6]; Receptor BZP Rat Brain Site): -0.21%
Inhibition 2 ([6]; Receptor BZP Rat Brain Site): 6.71%
Inhibition 3 ([6]; Receptor BZP Rat Brain Site): 5.47%
Inhibition 4 ([6]; Receptor BZP Rat Brain Site): 13.44%
Mean % ([6]; Receptor BZP Rat Brain Site): 6.35%
Inhibition 1 ([6]; Receptor DOR): -5.58%
Inhibition 2 ([6]; Receptor DOR): -6.66%
Inhibition 3 ([6]; Receptor DOR): -9.56%
Inhibition 4 ([6]; Receptor DOR): 1.65%
Mean % ([6]; Receptor DOR): -5.04%
Inhibition 1 ([6]; Receptor H3): 93.48%
Inhibition 2 ([6]; Receptor H3): 95.52%
Inhibition 3 ([6]; Receptor H3): 93.48%
Inhibition 4 ([6]; Receptor H3): 100.47%
Mean % ([6]; Receptor H3): 95.74%
Inhibition 1 ([6]; Receptor H4): 42.06%
Inhibition 2 ([6]; Receptor H4): 42.3%
Inhibition 3 ([6]; Receptor H4): 60.79%
Inhibition 4 ([6]; Receptor H4): 92.47%
Mean % ([6]; Receptor H4): 59.41%
Inhibition 1 ([6]; Receptor Sigma 1): 4.46%
Inhibition 2 ([6]; Receptor Sigma 1): 61.96%
Inhibition 3 ([6]; Receptor Sigma 1): 35.63%
Inhibition 4 ([6]; Receptor Sigma 1): 46.38%
Mean % ([6]; Receptor Sigma 1): 37.11%
Inhibition 1 ([6]; Receptor Sigma 2): 97.53%
Inhibition 2 ([6]; Receptor Sigma 2): 96.04%
Inhibition 3 ([6]; Receptor Sigma 2): 97.25%
Inhibition 4 ([6]; Receptor Sigma 2): 98.03%
Mean % ([6]; Receptor Sigma 2): 97.21%

Cl.NC(=O)c1cnc(N[C@@H]2CCCC[C@@H]2N)nc1Nc1cccc(-n2nccn2)c1 [UNC10302682A, P505-15 (PRT06207 HCl)]
Inhibition 1 [1]: 65.15%
Inhibition 2 [1]: 70.33%
Inhibition 3 [1]: 66.98%
Inhibition 4 [1]: 72.6%
Mean % [1]: 68.77%
Inhibition 1 [2]: 78.04%
Inhibition 2 [2]: 64.79%
Inhibition 3 [2]: 67.73%
Inhibition 4 [2]: 44.66%
Mean % [2]: 63.81%
Inhibition 1 [3]: 35.84%
Inhibition 2 [3]: 24.74%
Inhibition 3 [3]: 0.85%
Inhibition 4 [3]: 16.46%
Mean % [3]: 19.47%
Inhibition 1 [4]: 17.73%
Inhibition 2 [4]: -4.34%
Inhibition 3 [4]: 3.54%
Inhibition 4 [4]: 5.97%
Mean % [4]: 5.73%
Inhibition 1 [5]: 15.21%
Inhibition 2 [5]: 7.11%
Inhibition 3 [5]: 21.57%
Inhibition 4 [5]: 8.07%
Mean % [5]: 12.99%
Affinity for receptors in primary assays [6]: possessed affinity for the most receptors in primary assays
Inhibition 1 ([6]; Receptor Alpha1A): 22.91%
Inhibition 2 ([6]; Receptor Alpha1A): 19.17%
Inhibition 3 ([6]; Receptor Alpha1A): 28.52%
Inhibition 4 ([6]; Receptor Alpha1A): 1.22%
Mean % ([6]; Receptor Alpha1A): 17.96%
Inhibition 1 ([6]; Receptor Alpha2A): 21.38%
Inhibition 2 ([6]; Receptor Alpha2A): 23.31%
Inhibition 3 ([6]; Receptor Alpha2A): 19.6%
Inhibition 4 ([6]; Receptor Alpha2A): 16.75%
Mean % ([6]; Receptor Alpha2A): 20.26%
Inhibition 1 ([6]; Receptor Alpha2C): 22.11%
Inhibition 2 ([6]; Receptor Alpha2C): 17.82%
Inhibition 3 ([6]; Receptor Alpha2C): 14.79%
Inhibition 4 ([6]; Receptor Alpha2C): 26.53%
Mean % ([6]; Receptor Alpha2C): 20.31%
Inhibition 1 ([6]; Receptor BZP Rat Brain Site): 6.42%
Inhibition 2 ([6]; Receptor BZP Rat Brain Site): 10.02%
Inhibition 3 ([6]; Receptor BZP Rat Brain Site): 1.11%
Inhibition 4 ([6]; Receptor BZP Rat Brain Site): 13.06%
Mean % ([6]; Receptor BZP Rat Brain Site): 7.65%
Inhibition 1 ([6]; Receptor DOR): -18.41%
Inhibition 2 ([6]; Receptor DOR): -4.86%
Inhibition 3 ([6]; Receptor DOR): 0.02%
Inhibition 4 ([6]; Receptor DOR): 6.53%
Mean % ([6]; Receptor DOR): -4.18%
Inhibition 1 ([6]; Receptor H3): 29.95%
Inhibition 2 ([6]; Receptor H3): 45.1%
Inhibition 3 ([6]; Receptor H3): 59.09%
Inhibition 4 ([6]; Receptor H3): 65.79%
Mean % ([6]; Receptor H3): 49.98%
Inhibition 1 ([6]; Receptor H4): 11.34%
Inhibition 2 ([6]; Receptor H4): 13.02%
Inhibition 3 ([6]; Receptor H4): 28.62%
Inhibition 4 ([6]; Receptor H4): 77.11%
Mean % ([6]; Receptor H4): 32.52%
Inhibition 1 ([6]; Receptor Sigma 1): 15.02%
Inhibition 2 ([6]; Receptor Sigma 1): 35.34%
Inhibition 3 ([6]; Receptor Sigma 1): 14.82%
Inhibition 4 ([6]; Receptor Sigma 1): 27.31%
Mean % ([6]; Receptor Sigma 1): 23.12%
Inhibition 1 ([6]; Receptor Sigma 2): 57.01%
Inhibition 2 ([6]; Receptor Sigma 2): 56.94%
Inhibition 3 ([6]; Receptor Sigma 2): 67.96%
Inhibition 4 ([6]; Receptor Sigma 2): 81.11%
Mean % ([6]; Receptor Sigma 2): 65.76%
